Patent US8357687B2, “Macrocyclic indole derivatives useful as hepatitis C virus inhibitors” (priority 2008, dated 2013)

Tests used:
[1] = tested on: NS5B chimeric replicon of clinical isolate 1a_H77 in Huh7-cure cells; experiment: Transient replicon assay, chimeric replicon of clinical isolate 1a_H77 (CI1); format: cell-based, HCV genotype 1a; conditions: Hepatitis C virus, 48 h, read-out: EC50-T CI1
[2] = tested on: NS5B chimeric replicon of clinical isolate 1a—6 in Huh7-cure cells; experiment: Transient replicon assay, chimeric replicon of clinical isolate 1a—6 (CI2); format: cell-based, HCV genotype 1a; conditions: Hepatitis C virus, 48 h, read-out: EC50-T CI2
[3] = tested on: wild type replicon of genotype 1b (con1b) in Huh7-cure cells; experiment: Transient replicon assay, wild type replicon of genotype 1b (Con1b); format: cell-based, HCV genotype 1b; conditions: Hepatitis C virus, transient wild type replicon genotype 1b, 48 h, luciferase, read-out: EC50-T Con1b
[4] = target: T1, HCV NS5B polymerase (NS5BΔC21) (Hepatitis C virus genotype 1b, UniProt Q9WMX2); experiment: RNA-dependent RNA polymerase assay (enzyme inhibition assay); format: biochemical, HCV (genotype 1b consensus strain Con1)
T1 construct: NS5B (genotype 1b consensus strain Con1) lacking 21 C-terminal residues; made in house; host or cells: E. coli Rosetta 2 (DE3)
Text: The coding sequence for NS5B (genotype 1b consensus strain Con1) lacking 21 C-terminal residues was amplified from plasmid pFKI389/ns3-3′ (Genbank accession no. AJ242654), plasmid pCV-H77C (Genbank accession no. AF 011751.1) and subcloned into the pET21b plasmid as described previously (Pauwels et al. J. Virol., 2007). The NS5BΔC21 expression constructs were transformed into E. coli Rosetta 2 (DE3) (Novagen, Madison, Wis.). One hundred milliliters of LB-medium supplemented with carbenicillin (50 μg/mL) and chloramphenicol (34 μg/mL) was inoculated with one colony, grown overnight, and transferred to fresh LB-medium supplemented with 3% ethanol, carbenicillin and chloramphenicol, at a ratio of 1:200. Cells were grown to an optical density at 600 nm of 0.6, after which the expression cultures were shifted to a growth temperature of 20° C. following induction with ispopropyl-1-thio-β-D-galactopyranoside and MgCl2 at a final concentration of 0.4 mM and 10 μM, respectively. After 18 h of induction, cells were harvested by centrifugation and resuspended in 20 mM Tris-HCl, pH 7.5, 300 mM NaCl, 10% glycerol, 0.1% NP40, 4 mM MgCl2, 5 mM DTT supplemented with EDTA-free Complete Protease Inhibitor (Roche, Basel, Switzerland). Cell suspensions were disrupted by sonication and incubated with 10-15 mg/L of DNase I (Roche, Basel, Switzerland) for 30 min. Cell debris was removed through ultracentrifugation at 30,000×g for 1 hour and clarified cell lysate was flash frozen and stored at −80° C. prior to purification.
Clarified cell lysate was thawed and subsequently loaded onto a 5 mL pre-packed HisTrap FF column equilibrated with 25 mM HEPES, pH 7.5, 500 mM NaCl, 10% glycerol and 5 mM DTT. Proteins were eluted with 500 mM imidazole at a flow rate of 1 mL/min. Fractions containing the protein of interest were applied onto a pre-packed 26/10 HiPrep Desalting Column equilibrated with 25 mM HEPES, pH 7.5, 250 mM NaCl, 10% glycerol and 5 mM DTT. The buffer-exchanged NS5B peak was then applied onto a 6 ml Resource S column. Protein was eluted with an increasing salt gradient and fractions collected. Protein purity was assessed on Nu-PAGE pre-cast gels (Invitrogen, Carlsbad, Calif.). Purified NS5B samples were concentrated using Centri-Prep concentrators (Millipore, Billerica, Mass., USA) and protein concentrations were determined by spectrofotometry with the Nanodrop (Nanodrop Technologies, Wilmington, Del., USA).
Measurement of HCV NS5B polymerization activity was performed by evaluating the amount of radio labeled GTP incorporated by the enzyme in a newly synthesized RNA using […] RNA template/primer. The RdRp assay was carried out in 384-well plates. 2.5 nM of purified NS5B enzyme was pre-incubated for 10 min with 150 nM 5′-biotinylated oligo(rG13) primer, 15 nM poly(rC) template, in 18 mM Tris-HCl, pH 7.5, 5 mM MgCl2, 20.5 mM KCl, 17 mM NaCl and 2.5 mM of DTT. The test compounds were the added to the preformed polymerase-template complex, and incubated at room temperature for 15 min before the addition 600 nM of GTP, and 0.13 μCi of [^3H]GTP. 30 μL reaction mixture was incubated at room temperature for 2 h before stopping the reaction by adding 30 μL of streptavidin coated SPA-beads (GE Healthcare, Uppsala, Sweden) in 0.5 M EDTA. […] IC50 values represent the concentration of compound required to decrease by 50% the amount of RNA produced which is measured by the detection of incorporated radiolabeled GTP.

[5] = target: T2, NS5B wild-type enzyme genotype 1a (Hepatitis C virus genotype 1a, UniProt P27958); experiment: Enzyme binding assay (SPR, Biacore), genotype 1a; set-up: species or system HCV genotype 1a; conditions: for kon / t1/2 (dissociative half-life): genotype 1a; for kon: SPR, 25° C.; for t1/2 (dissociative half-life): t1/2=ln(2)/koff
T2 construct: The purified HIS6-tagged NS5BΔC21 polymerases were immobilized; made in house; host or cells: E. coli Rosetta 2 (DE3)
Experimental: (§1) The compounds of formula (I) were examined for their enzymatic binding kinetics or affinity using a Surface Plasmon Resonance (SPR)-based method, i.e. Biacore. A slow dissociation of the inhibiting compound from its viral target (low koff, low Kd) is believed to potentially reduce the development of drug resistance against anti-viral drugs (Dierynck et al. 2007. Journal of Virology, vol. 81, No. 24, 13845-13851). All measurements were performed on a Biacore T100 instrument (GE Healthcare). The purified HIS6-tagged NS5BΔC21 polymerases were immobilized using non-covalent capturing to an NTA sensor chip (GE Healthcare) in immobilization buffer (20 mM MOPS pH 7.4, 500 mM NaCl, 0.005% Tween-P20, 1 mM DTT, 50 μM EDTA). Interaction studies were all performed at 25° C. Inhibitors were serially diluted in running buffer (20 mM Tris-HCl pH 7.4, 150 mM NaCl, 50 μM EDTA, 1 mM DTT, 0.005% Tween-P20) containing 5% dimethyl sulfoxide (DMSO). Single-cycle kinetics were used, in which 5 increasing concentrations of compound were injected for a period of 300 s each in 1 single cycle, and dissociation was monitored for a period of 1200 s. The sensor surface was completely regenerated in between the cycles. Data were analyzed using simultaneous nonlinear regression analysis (global fitting) adapted for single-cycle kinetics with Biacore T100 BiaEval evaluation software 2.0 (GE Healthcare). The individual rate constants kon and koff and a derived affinity constant, Kd=koff/kon, were determined by a kinetic evaluation of the sensorgrams. The kinetic models accounted for bulk and limited mass transport effects. Every analysis was performed at least in two independent experiments. The dissociation rate of a kinetic interaction can be translated into a compound residence time (dissociative half-life t1/2=ln(2)/koff) representative for the interaction time between the polymerase and its inhibitor.
(§2) The observed association rate constants (kon), dissociation rate constants (koff), derived affinity constant (Kd) and dissociative half-life (t1/2) measured for compounds of formula (I) or subgroups thereof on NS5B wild-type enzyme genotypes 1a, 1b and 4a are given in Table 2.

[6] = target: T3, NS5B wild-type enzyme genotype 4a (UniProt O39929); experiment: Enzyme binding assay (SPR, Biacore), genotype 4a; set-up: species or system HCV genotype 4a; conditions: for Kd: Kd=koff/kon; for koff / kon: SPR, 25° C.; for t1/2 (dissociative half-life): t1/2=ln(2)/koff
T3 construct: fused on or other part: His6 tag
Experimental: as §1, §2

[7] = target: T4, NS5B wild-type enzyme genotype 1b (Hepatitis C virus genotype 1b, UniProt Q9WMX2); experiment: Enzyme binding assay (SPR, Biacore), genotype 1b; conditions: for koff / kon / t1/2 (dissociative half-life): genotype 1b; for koff / kon: SPR, 25° C.; for t1/2 (dissociative half-life): t1/2=ln(2)/koff
T4 construct: NS5B (genotype 1b consensus strain Con1) lacking 21 C-terminal residues; made in house; host or cells: E. coli Rosetta 2 (DE3)
Experimental: as §1, §2

T2 sequence (P27958 2421-2990): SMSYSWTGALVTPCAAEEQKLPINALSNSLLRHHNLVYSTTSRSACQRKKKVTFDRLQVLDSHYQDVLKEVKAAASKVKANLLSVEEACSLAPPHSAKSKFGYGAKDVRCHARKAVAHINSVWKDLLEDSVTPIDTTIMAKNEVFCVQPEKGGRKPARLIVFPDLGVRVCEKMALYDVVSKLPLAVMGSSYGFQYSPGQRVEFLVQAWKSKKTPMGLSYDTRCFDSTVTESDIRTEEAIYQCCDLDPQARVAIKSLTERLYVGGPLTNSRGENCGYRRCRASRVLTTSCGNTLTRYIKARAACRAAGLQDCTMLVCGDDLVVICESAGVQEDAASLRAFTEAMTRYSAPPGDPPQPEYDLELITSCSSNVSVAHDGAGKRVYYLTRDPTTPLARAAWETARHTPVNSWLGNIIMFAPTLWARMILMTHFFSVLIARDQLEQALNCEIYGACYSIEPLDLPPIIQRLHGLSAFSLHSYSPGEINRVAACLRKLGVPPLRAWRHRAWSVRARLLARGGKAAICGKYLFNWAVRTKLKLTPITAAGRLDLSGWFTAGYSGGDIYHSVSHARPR

Compound: COc1ccc2c(c1)OCC(=O)N(C)CCCCN(C)S(=O)(=O)NC(=O)c1ccc3c(C4CCCCC4)c-2n(C)c3c1 [Compound 53, 24-cyclohexyl-22-methoxy-4,9,18-trimethyl-4,5,6,7,8,9-hexahydro-13,17:16,19-di(metheno)-1,10,4,9,11,18-benzoxathiatetraazacyclohenicosine-3,12(2H,11H,18H)-dione 10,10-dioxide]
- EC50 [1]: 44 nM
- EC50 [2]: 66 nM
- EC50 [3]: 83 nM

Compound: CC(C)n1c2c(C3CCCCC3)c3ccc(cc31)C(=O)NS(=O)(=O)N(C)CCOCCN(C)C(=O)COc1ccccc1-2 [Compound 52, 25-cyclohexyl-4,10-dimethyl-19-(1-methylethyl)-5,6,9,10-tetrahydro-2H,8H-14,18:17,20-di(metheno)-1,7,11,4,10,12,19-benzodioxathiatetraazacyclodocosine-3,13 (4H,12H,19H)-dione 11,11-dioxide]
- EC50 [1]: 7140 nM
- EC50 [2]: 7960 nM
- EC50 [3]: 7660 nM
- IC50 [4]: 1660 nM

Compound: CN1CCCCCNC(=O)COc2ccccc2-c2c(C3CCCCC3)c3ccc(cc3n2C)C(=O)NS1(=O)=O [Compound 21, 25-cyclohexyl-10,19-dimethyl-5,6,7,8,9,10-hexahydro-2H-14,18:17,20-di(metheno)-1,11,4,10,12,19-benzoxathiatetraazacyclodocosine-3,13(4H,12H,19H)-dione 11,11-dioxide]
- EC50 [1]: 55 nM
- EC50 [2]: 95 nM
- EC50 [3]: 123 nM
- IC50 [4]: 148 nM

Compound: COc1ccc2c(c1)OCC(=O)N(C)CCOCCN(C)S(=O)(=O)NC(=O)c1ccc3c(C4CCCCC4)c-2n(C)c3c1 [Compound 54, 25-cyclohexyl-23-methoxy-4,10,19-trimethyl-5,6,9,10-tetrahydro-2H,8H-14,18:17,20-di(metheno)-1,7,11,4,10,12,19-benzodioxathiatetraazacyclodocosine-3,13 (4H,12H,19H)-dione 11,11-dioxide]
- EC50 [1]: 67 nM
- EC50 [2]: 81 nM
- EC50 [3]: 103 nM

Compound: CN1CCCCN(C)S(=O)(=O)NC(=O)c2ccc3c(C4CCCCC4)c(n(C4CCCC4)c3c2)-c2ccccc2OCC1=O [Compound 40, 24-cyclohexyl-18-cyclopentyl-4,9-dimethyl-4,5,6,7,8,9-hexahydro-13,17:16,19-di(metheno)-1,10,4,9,11,18-benzoxathiatetraazacyclohenicosine-3,12(2H,11H,18H)-dione 10,10-dioxide]
- EC50 [1]: 5150 nM
- EC50 [2]: 5270 nM
- EC50 [3]: 7340 nM
- IC50 [4]: 1090 nM

Compound: CN1CCN2CCN(CC2)C(=O)COc2ccccc2-c2c(C3CCCCC3)c3ccc(cc3n2C)C(=O)NS1(=O)=O [Compound 22, 30-cyclohexyl-12,21-dimethyl-4-oxa-20-thia-1,12,19,21,24-pentaazapentacyclo[22.2.2.1^11,14.1^13,17.0^5,10]triaconta-5,7,9,11(30),13(29),14,16-heptaene-2,18-dione 20,20-dioxide]
- EC50 [1]: 156 nM
- EC50 [2]: 201 nM
- EC50 [3]: 164 nM
- IC50 [4]: 181 nM

Compound: CN1CCCCCNC(=O)COc2ccc(F)cc2-c2c(C3CCCCC3)c3ccc(cc3n2C)C(=O)NS1(=O)=O [Compound 51, 25-cyclohexyl-22-fluoro-10,19-dimethyl-5,6,7,8,9,10-hexahydro-2H-14,18:17,20-di(metheno)-1,11,4,10,12,19-benzoxathiatetraazacyclodocosine-3,13(4H,12H,19H)-dione 11,11-dioxide]
- IC50 [4]: 88 nM
- Kd [5]: 39 nM
- koff [5]: 0.0035 s⁻¹
- kon [5]: 9.5E+04 1/MS
- t1/2 (dissociative half-life) [5]: 3.3 min
- Kd [6]: 11 nM
- koff [6]: 0.0022 s⁻¹
- kon [6]: 1.9E+05 1/MS
- t1/2 (dissociative half-life) [6]: 5.33 min
- Kd [7]: 16 nM
- koff [7]: 0.00031 s⁻¹
- kon [7]: 2.0E+04 1/MS
- t1/2 (dissociative half-life) [7]: 37.38 min

Compound: CN1CCCCNC(=O)COc2ccccc2-c2c(C3CCCCC3)c3ccc(cc3n2C)C(=O)NS1(=O)=O [Compound 32, 24-cyclohexyl-9,18-dimethyl-4,5,6,7,8,9-hexahydro-13,17:16,19-di(metheno)-1,10,4,9,11,18-benzoxathiatetraazacyclohenicosine-3,12(2H,11H,18H)-dione 10,10-dioxide]
- EC50 [1]: 1600 nM
- EC50 [2]: 2950 nM
- EC50 [3]: 3610 nM
- IC50 [4]: 1820 nM
- Kd [5]: 3300 nM
- koff [5]: 0.0089 s⁻¹
- kon [5]: 3.0E+03 1/MS
- t1/2 (dissociative half-life) [5]: 1.3 min
- Kd [6]: 450 nM
- koff [6]: 0.0087 s⁻¹
- kon [6]: 1.9E+04 1/MS
- t1/2 (dissociative half-life) [6]: 1.33 min
- Kd [7]: 1200 nM
- koff [7]: 0.015 s⁻¹
- kon [7]: 1.3E+04 1/MS
- t1/2 (dissociative half-life) [7]: 0.783 min
